Holding throughout (format): in vivo
In experiment [1] the test system is CHEAL (Chenopodium album L., common lambsquarters). The experiment can be described thus: Example IV postemergence foliar-applied mixtures, general weed control, greenhouse: CHEAL. The procedure: (§1) Seeds or nutlets of the desired test plant species were planted in Sun Gro Metro-Mix® 360 planting mixture, which typically has a pH of 6.0 to 6.8 and an organic matter content of about 30 percent, in plastic pots with a surface area of 84.6 square centimeters (cm^2). […] The plants were grown for 7-31 days (d) in a greenhouse with an approximate 15 hour (h) photoperiod which was maintained at about 23-29° C. during the day and 22-28° C. during the night. Nutrients (Peters Excel® 15-5-15 5-Ca 2-Mg) and water were added on a regular basis and supplemental lighting was provided with overhead metal halide 1000-Watt lamps as necessary. The plants were employed for testing when they reached the first, second, or third true leaf stage.
(§2) Treatments consisted of the acid or the benzyl ester of 4-amino-3-chloro-5-fluoro-6-(4-chloro-2-fluoro-3-methoxy-phenyl)pyridine-2-carboxylic acid (Compound A), each formulated as an SC, and various herbicidal components alone and in combination. Forms of compound A were applied on an acid equivalent basis.
(§3) Other herbicidal components were applied on an acid equivalent or active ingredient basis and included the 5-enolpyruvylshikimate-3-phosphate synthase (EPSPS)-inhibiting herbicide, glyphosate dimethylamine salt, formulated as Durango DMA® and the glutamine synthase (GS)-inhibiting herbicide, glufosinate ammonium, formulated as Ignite® 280.
(§4) For treatments comprised of formulated compounds, measured amounts of compounds were placed individually in 25 mL glass vials and diluted in a volume of 1.25% (v/v) Agri-dex crop oil concentrated to obtain 12× stock solutions. […] Application solutions were prepared by adding an appropriate amount of each stock solution (typically 1 mL) and diluted to the appropriate final concentrations with the addition of 10 mL of an aqueous mixture of 1.25% (v/v) Agri-dex crop oil concentrate so that the final spray solutions contained 1.25% (v/v) Agri-dex crop oil concentrate.
(§5) All stock solutions and applications solutions were visually inspected for compound compatibility prior to application. Compound requirements are based upon a 12 mL application volume at a rate of 187 liters per hectare (L/ha). Formulated compounds were applied to the plant material with an overhead Mandel track sprayer equipped with 8002E nozzles calibrated to deliver 187 L/ha over an application area of 0.503 square meters (m^2) at a spray height of 18 to 20 inches (46 to 50 cm) above the average plant canopy height. Control plants were sprayed in the same manner with the solvent blank.
(§6) The treated plants and control plants were placed in a greenhouse as described above and watered by sub-irrigation to prevent wash-off of the test compounds. After approximately 3 weeks, the condition of the test plants as compared with that of the untreated plants was determined visually and scored on a scale of 0 to 100 percent where 0 corresponds to no injury or growth inhibition and 100 corresponds to complete kill.
(§7) Colby's equation was used to determine the herbicidal effects expected from the mixtures (Colby, S. R. 1967. Calculation of the synergistic and antagonistic response of herbicide combinations. Weeds 15:20-22.) .

Experiment [2] deals with ECHCG (Echinochloa crusgalli (L.) Beauv., barnyardgrass). The experiment is described as follows: Example IV postemergence foliar-applied mixtures, general weed control, greenhouse: ECHCG. The procedure: as §6, §7
The following equation was used to calculate the expected activity of mixtures containing two active ingredients, A and B:
A=observed efficacy of active ingredient A at the same concentration as used in the mixture.
B=observed efficacy of active ingredient B at the same concentration as used in the mixture.

For experiment [3], the system named is CIRAR (Cirsium arvense (L.) Scop., Canada thistle). The experiment is described as follows: Example IV postemergence foliar-applied mixtures, general weed control, greenhouse: CIRAR (Table 17, species inferred from b27). The procedure:
as §1, §2, §3, §4, §5, §6, §7

The subject of experiment [4] is CYPDI (Cyperus difformis L., smallflower umbrella sedge). The experiment can be described thus: Example I postemergence foliar-applied mixtures, direct seeded rice weeds, greenhouse: CYPDI. The procedure:
Seeds or nutlets of the desired test plant species were planted in a soil matrix prepared by mixing a loam or sandy loam soil (e.g., 28.6 percent silt, 18.8 percent clay, and 52.6 percent sand, with a pH of about 5.8 and an organic matter content of about 1.8 percent) and calcareous grit in an 80 to 20 ratio. The soil matrix was contained in plastic pots with a volume of 1 quart and a surface area of 83.6 square centimeters (cm^2). […] The plants were grown for 8-22 days in a greenhouse with an approximate 14 hr photoperiod which was maintained at about 29° C. during the day and 26° C. during the night. Nutrients (Peters Excel® 15-5-15 5-Ca 2-Mg and iron chelate) were applied in the irrigation solution as needed and water was added on a regular basis. Supplemental lighting was provided with overhead metal halide 1000-Watt lamps as necessary. The plants were employed for testing when they reached the first through fourth true leaf stage.
Treatments consisted of the acid or esters of 4-amino-3-chloro-5-fluoro-6-(4-chloro-2-fluoro-3-methoxy-phenyl)pyridine-2-carboxylic acid (Compound A), each formulated as an SC (suspension concentrate), and various herbicidal components alone and in combination. Forms of compound A were applied on an acid equivalent basis.
For treatments comprised of formulated compounds, measured amounts of compounds were placed individually in 25 mL glass vials and diluted in a volume of 1.25% (v/v) Agri-Dex® crop oil concentrated to obtain 12× stock solutions. […] Application solutions were prepared by adding an appropriate amount of each stock solution (e.g., 1 mL) and diluted to the appropriate final concentrations with the addition of 10 mL of an aqueous mixture of 1.25% (v/v) crop oil concentrate so that the final spray solutions contained 1.25+/−0.05% (v/v) crop oil concentrate.
All stock solutions and applications solutions were visually inspected for compound compatibility prior to application. Spray solutions were applied to the plant material with an overhead Mandel track sprayer equipped with a 8002E nozzles calibrated to deliver 187 L/ha over an application area of 0.503 m^2 at a spray height of 18 to 20 inches (46 to 50 cm) above average plant canopy height. Control plants were sprayed in the same manner with the solvent blank.
(§8) The treated plants and control plants were placed in a greenhouse as described above and watered by sub-irrigation to prevent wash-off of the test compounds. After approximately 3 weeks, the condition of the test plants as compared with that of the untreated plants was determined visually and scored on a scale of 0 to 100 percent where 0 corresponds to no injury or growth inhibition and 100 corresponds to complete kill. […]

In experiment [5] the test system is CYPES (Cyperus esculentus L., yellow nutsedge). The experiment can be described thus: Example IV postemergence foliar-applied mixtures, general weed control, greenhouse: CYPES. The procedure: as §1, §2, §3, §4, §5, §6, §7
Experiment [6] deals with VIOTR (Viola tricolor L., wild violet). The experiment can be described thus: Example IV postemergence foliar-applied mixtures, general weed control, greenhouse: VIOTR. The conditions noted are these: Compound A Benzyl Ester alone. The procedure:
as §1, §2, §3, §4
All stock solutions and applications solutions were visually inspected for compound compatibility prior to application. Compound requirements are based upon a 12 mL application volume at a rate of 187 liters per hectare (L/ha). […]
as §8

Where [7] appears, read: Glufosinate ammonium salt 112.5 gai/ha alone, 18 DAA.
Setting [8] is: Glufosinate ammonium salt 225 gai/ha alone, 18 DAA.
Setting [9] is: Glufosinate ammonium salt 450 gai/ha alone, 18 DAA.
Setting [10] is: Glufosinate ammonium salt 225 gai/ha alone.
[11] abbreviates: Compound A Benzyl Ester 2 gae/ha alone, 18 DAA.
[12] abbreviates: Compound A Benzyl Ester 4 gae/ha alone, 18 DAA.
Setting [13] is: Compound A Benzyl Ester 8 gae/ha alone, 18 DAA.
[14] abbreviates: Compound A Benzyl Ester alone, 2 gae/ha.
Where [15] appears, read: Compound A Benzyl Ester 8 gae/ha alone.

Experimental findings from patent US20140031227A1, “HERBICIDAL COMPOSITIONS COMPRISING 4-AMINO-3-CHLORO-5-FLUORO-6-(4-CHLORO-2-FLUORO-3-METHOXYPHENYL) PYRIDINE-2-CARBOXYLIC ACID OR A DERIVATIVE THEREOF AND GLYPHOSATE OR GLUFOSINATE” (DOW AGROSCIENCES LLC, priority 2012, published 2014) are described below.

Where a name gives a salt, the structure may show the parent alone.

For the compound `CP(=O)(O)CCC(N)C(=O)O` (stereo not shown) [Glufosinate ammonium salt, 2-amino-4-(hydroxymethylphosphinyl)butanoic acid monoammonium salt, reference compound], the results for the “Visual Weed Control (%) - 18 DAA CHEAL Obs” value in experiment [1] (setting [7]), in experiment [1] (setting [8]) and in experiment [1] (setting [9]) were 0%, 10% and 30%, respectively. Also, the “Visual Weed Control (%) - 18 DAA ECHCG Obs” value in experiment [2] (Glufosinate ammonium salt 112.5 gai/ha alone) worked out at 0%; in experiment [2] (setting [10]) it was 0%; in experiment [2] (Glufosinate ammonium salt 450 gai/ha alone) it was 10%. Further, the “Visual Weed Control (%) - 18 DAA CIRAR Obs” value in experiment [3] (setting [10]) is 15%. For the same compound, the “Visual Weed Control (%) - 21 DAA CYPDI Obs” value in experiment [4] (glufosinate ammonium alone, 135.5 gae/ha) amounted to 0%; in experiment [4] (glufosinate ammonium alone, 271 gae/ha), 0%. In addition, the “Visual Weed Control (%) - 18 DAA CYPES Obs” value in experiment [5] (setting [7]), in experiment [5] (setting [8]) and in experiment [5] (setting [9]) was 0% in each case.
With `COc1c(Cl)ccc(-c2nc(C(=O)OCc3ccccc3)c(Cl)c(N)c2F)c1F` [Compound A Benzyl Ester], the “Visual Weed Control (%) - 18 DAA VIOTR Obs” value in experiment [6] (2 gae/ha) stood at 15%; in experiment [6] (4 gae/ha) it was 20%. The “Visual Weed Control (%) - 18 DAA CHEAL Obs” value worked out at 50% in experiment [1] (setting [11]); 70% in experiment [1] (setting [12]); 90% in experiment [1] (setting [13]); 50% in experiment [1] (setting [14]); 70% in experiment [1] (Compound A Benzyl Ester alone, 4 gae/ha); 90% in experiment [1] (Compound A Benzyl Ester alone, 8 gae/ha). Further, the “Visual Weed Control (%) - 18 DAA CHEAL Obs” value worked out at 95% in experiment [1] (Compound A Benzyl Ester alone, 16 gae/ha) and 99% in experiment [1] (Compound A Benzyl Ester alone, 32 gae/ha). Further, the “Visual Weed Control (%) - 18 DAA ECHCG Obs” value in experiment [2] (setting [15]) was determined as 40%. In addition, the “Visual Weed Control (%) - 18 DAA CIRAR Obs” value in experiment [3] (Compound A Benzyl Ester 2 gae/ha alone) amounted to 60%; in experiment [3] (Compound A Benzyl Ester 4 gae/ha alone), 70%; in experiment [3] (setting [15]) it was 80%; in experiment [3] (Compound A Benzyl Ester 16 gae/ha alone), 85%; in experiment [3] (Compound A Benzyl Ester 32 gae/ha alone), 90%. Further, the “Visual Weed Control (%) - 18 DAA CYPES Obs” value in experiment [5] (setting [11]) was determined as 40%; in experiment [5] (setting [12]) it was 75%; in experiment [5] (setting [13]), 80%; in experiment [5] (setting [14]), 40%.
Turning to `COc1c(Cl)ccc(-c2nc(C(=O)O)c(Cl)c(N)c2F)c1F` [Compound A Acid, 4-amino-3-chloro-6-(4-chloro-2-fluoro-3-methoxyphenyl)-5-fluoropyridine-2-carboxylic acid], the “Visual Weed Control (%) - 21 DAA CYPDI Obs” value is listed as 50% in experiment [4] (Compound A Acid alone, 4.38 gae/ha) and 85% in experiment [4] (Compound A Acid alone, 8.75 gae/ha).
